Assay results: patent US20220227765A1, “PYRIDO-INDOLE ANALOGUES AS GPX4 INHIBITORS” (Ferro Therapeutics, Inc., priority 2019, published 2022)
In brackets after ≈: the same amount, converted by molar mass. Read-outs that look alike come from different tables or passages of the source.

How the values were obtained:
[1] = Human hepatocyte metabolic stability; format: in vitro ADME; conditions: for half-life / hepatocyte CLint: human hepatocytes; for half-life: read-out: human hepatocytes T1/2; for hepatocyte CLint: read-out: human hepatocytes h Clintr (μL/min/10^6 cells)
786-O = test: Cell proliferation (Alamar Blue) assay, 786-O; format: cell-based, human; conditions: Homo sapiens, 786-0, 24 h, Table B-3, 786-O cells
Protocol: (§1) Cell viability assay was performed to assess the potency of the compounds in human cancer cell lines 786-0 (renal cell carcinoma) and SJSA-1 (osteosarcoma). Additional cell lines, such as pancreatic cancer cell lines (Panc 02.13, BxPC-3, Panc 12, Panc 02.03, Panc 6.03, PSN-1, HPAC, and Capan-1), prostate cancer cell lines (PC-3, DU145, 22Rv1, NCI-H660, BPH1, LNCaP, BM-1604, and MDA PCa 2b), etc., can be tested in a similar method.
(§2) Cells (SJSA-1, 786-0 and A431) were seeded (5000 cells/100 μL/well) in 96-well tissue culture plate and incubated at 37° C./5% CO2 for 16-24 hours. The cells were then treated with compounds (25 μL of 5×). The compound concentrations were 10-0.0005 μM prepared in 3-fold serial dilutions with final DMSO concentration of 1%. The plates were then incubated for 24 h at 37° C./5% CO2 in a moist environment. Then Alamar Blue™ reagent (final concentration 1×-12.5 μL) was added to each well and incubated for 1.5 hours at 37° C./5% CO2. The plates were read on fluorescence reader at 540 nm excitation and 590 nm emission wavelengths. The IC50 values were subsequently determined using a sigmoidal dose-response curve (variable slope) in GraphPad Prism® 5 software. Table A-3, Table B-3 and Table C-3 show cell proliferation data for certain compounds as described herein.

[2] = Rat hepatocyte metabolic stability; format: in vitro ADME; conditions: for half-life / hepatocyte CLint: rat hepatocytes; for half-life: read-out: rat hepatocytes T1/2; for hepatocyte CLint: read-out: rat hepatocytes h Clintr (μL/min/10^6 cells)
SJSA-1 = test: Cell proliferation (Alamar Blue) assay, SJSA-1; format: cell-based, human; conditions: Homo sapiens, SJSA-1, 24 h, Table B-3, head prints SJSB-1, 24 h, read-out: IC50 (μM) SJSB-1
Protocol: as §1, §2

[3] = Rat IV pharmacokinetics (2 mg/kg); format: in vivo; conditions: male, SD, plasma
Source text: Institutional Animal Ethical Committee (IAEC) of Jubilant Biosys (IAEC/JDC/2019/188R (for Mice) and IAEC/JDC/2019/189R (for Rat) nominated by CPCSEA (Committee for the Purpose of Control and Supervision of Experiments on Animals) approved the mice and rat pharmacokinetic experiments. Male Balb/c mice (˜6-8 weeks old with body weight range of 22-25 g) and male SD rats (6-8 weeks old with body weight range of 200-250 g) were procured from Vivo Biotech, Hyderabad, India. Animals were quarantined in Jubilant Biosys Animal House for a period of 7 days with a 12:12 h light: dark cycles, and prior to the study the animals were stratified as per body weight.
B) Procedure for rat: Intravenous and oral pharmacokinetics study was done at a dose 2 and 10 mg/kg at dose volume of 2 and 10 mL/Kg. Serial blood sampling was done and at each time point (˜200 μL) were collected from retro-orbital plexus at 0.083 (Only for IV), 0.25, 0.5, 1, 2, 4, 8, 10 (only for PO) and 24 h. Blood samples were collected in tubes containing K2.EDTA as anticoagulant and centrifuged for 5 min at 10,000 rpm in a refrigerated centrifuge (Biofuge, Heraeus, Germany) maintained at 4° C. for plasma separation.
Group I (IV) received test compound intravenously by tail vein at 2 mg/Kg in solution formulation prepared using 30% Kolliphore EL in WFI; dose volume: 2 mL/Kg; strength: 1 mg/mL.
Blood concentration-time data of test compound was analyzed by non-compartmental method using Phoenix WinNonlin Version 8.1.

A431 = test: Cell proliferation (Alamar Blue) assay, A431; format: cell-based, human; conditions: Homo sapiens, A-431, 24 h, Table B-3, A431 cells
Protocol: as §1, §2

[4] = Kinetic solubility (PBS, pH 7.4); format: physicochemical; conditions: for solubility kinetic: aqueous buffer, kinetic from dmso stock
[5] = Equilibrium solubility at different pHs and with SBECD; format: physicochemical; conditions: thermodynamic from solid
Human blood stability = format: in vitro ADME
[6] = CD-1 Mouse Whole Blood Stability Assay; format: in vitro ADME; conditions: Table B-6, incubation at 37° C.
[7] = aqueous buffer, pH 3.0 PBS buffer, read-out: Eq. solubility pH 3.0 PBS buffer
[8] = aqueous with cosolvent or surfactant or cyclodextrin, 20% SBECD (sulfobutyl ether cyclodextrin), read-out: Eq. solubility 20% SBECD

## C#CC(=O)N1[C@@H](CC2CC2)Cc2c([nH]c3ccccc23)[C@@H]1c1ccc(NC23CC4CC(CC(C4)C2)C3)cc1 [Compound B-37]
[1]
  human hepatocytes extr. Ratio: 0.58
  human hepatocytes % met @ 180 min: 38%
  half-life: 4.5 h
  hepatocyte CLint: 10 µL/min/1e6 cells
786-O
  IC50: 0.001 µM
[2]
  rat hepatocytes extr. Ratio: 0.64
  rat hepatocytes % met @ 180 min: 74%
  half-life: 2.28 h
  hepatocyte CLint: 20 µL/min/1e6 cells
SJSA-1
  IC50: 0.004 µM
[3]; read-out: Rat IV-PK AUC (0-t)
  AUC(0-t): 346 ng·h/mL
[3]; read-out: Rat IV-PK CL
  clearance: 115 mL/min/kg
[3]; read-out: Rat IV-PK T1/2
  half-life: 3.3 h
[3]; read-out: Rat IV-PK Vd
  Vd: 32 L/kg
A431
  IC50: 4.6 µM
[4]; Table B-4
  solubility kinetic: < 1 µM

## C#CC(=O)N1[C@@H](CCCC)Cc2c([nH]c3c(F)cc(F)cc23)[C@@H]1c1cnn(C)c1 [Compound B-33]
786-O
  IC50: 0.121 µM
SJSA-1
  IC50: 0.257 µM
[5]; [7]
  solubility: < 1 µg/mL
[5]; [8]
  solubility: > 1090 µg/mL
A431
  IC50: > 10 µM

## C#CC(=O)N1[C@@H](CCCC)Cc2c([nH]c3c(F)cc(F)cc23)[C@@H]1c1ccc(N2CCN(C(C)=O)CC2)c(C#N)c1 [Compound B-32]
786-O
  IC50: 0.018 µM
SJSA-1
  IC50: 0.029 µM
[5]; aqueous buffer, pH 3.0, read-out: Eq. solubility pH 3.0
  solubility: < 1 µg/mL
[5]; [7]
  solubility: < 1 µg/mL
[5]; [8]
  solubility: 9 to 18 µg/mL (≈ 16.6 to 33.1 µM)
[4]; Table B-7
  solubility kinetic: < 1 µM

## C#CC(=O)N1[C@@H](CCCC)Cc2c([nH]c3ccccc23)[C@@H]1c1ccc(C(=O)NC2CCC2)nc1 [Compound B-5, 5-((1S,3S)-3-butyl-2-propioloyl-2,3,4,9-tetrahydro-1H-pyrido[3,4-b]indol-1-yl)-N-cyclobutylpicolinamide]
[1]
  human hepatocytes extr. Ratio: 0.82
786-O
  IC50: 0.002 µM
[2]
  rat hepatocytes extr. Ratio: 0.9
Human blood stability; 15 min
  human blood stability % remaining: 36%_15
Human blood stability; 30 min
  human blood stability % remaining: 41%_30
Human blood stability; 45 min
  human blood stability % remaining: 11%_45
Human blood stability; 60 min
  human blood stability % remaining: 9%_60
Human blood stability; 120 min
  human blood stability % remaining: 0%_120
SJSA-1
  IC50: 0.002 µM
[4]; Table B-4
  solubility kinetic: 1 µM (≈ 0.455 µg/mL)

## C#CC(=O)N1[C@@H](CCCC)Cc2c([nH]c3c(F)cc(F)cc23)[C@@H]1c1ccc(C#N)nc1 [Compound B-51]
786-O
  IC50: 0.07 µM
SJSA-1
  IC50: 0.01 µM
A431
  IC50: 1.1 µM
[6]; 0 min
  CD-1 Mouse Whole Blood Stability % Remaining: 100%
[6]; 30 min
  CD-1 Mouse Whole Blood Stability % Remaining: 0%
[6]; 60 min
  CD-1 Mouse Whole Blood Stability % Remaining: 0%

## C#CC(=O)N1[C@@H](CCCC)Cc2c([nH]c3c(F)cc(F)cc23)[C@@H]1C1CCN(C(=O)OC)CC1 [Compound B-28]
786-O
  IC50: 0.032 µM
SJSA-1
  IC50: 0.06 µM
A431
  IC50: 8.1 µM
[6]; 0 min
  CD-1 Mouse Whole Blood Stability % Remaining: 100.0%
[6]; 30 min
  CD-1 Mouse Whole Blood Stability % Remaining: 9.6%
[6]; 60 min
  CD-1 Mouse Whole Blood Stability % Remaining: 2.1%

## C#CC(=O)N1[C@@H](CCCC)Cc2c([nH]c3c(F)cc(F)cc23)[C@@H]1c1ccc(NC(=O)OCC)cc1 [Compound B-35]
[1]
  human hepatocytes extr. Ratio: 0.8
  human hepatocytes % met @ 180 min: 73%
  half-life: 1.63 h
  hepatocyte CLint: 28 µL/min/1e6 cells
786-O
  IC50: 0.01 µM
[2]
  rat hepatocytes extr. Ratio: 0.78
  rat hepatocytes % met @ 180 min: 94%
  half-life: 1.13 h
  hepatocyte CLint: 41 µL/min/1e6 cells
Human blood stability; 15 min
  human blood stability % remaining: 107%_15
Human blood stability; 30 min
  human blood stability % remaining: 31%_30
Human blood stability; 45 min
  human blood stability % remaining: 15%_45
Human blood stability; 60 min
  human blood stability % remaining: 8.4%_60
Human blood stability; 120 min
  human blood stability % remaining: 0%_120
SJSA-1
  IC50: 0.019 µM
[5]; [8]
  solubility: 10 µg/mL (≈ 20.9 µM)
A431
  IC50: 6.6 µM
[4]; Table B-7
  Kinetic solubility (PBS, pH 7.4, μM): <1 μM
[4]; Table B-4
  solubility kinetic: < 1 µM

## C#CC(=O)N1[C@@H](CCCC)Cc2c(sc3ccccc23)[C@@H]1c1ccc(NC(=O)OCCCCC)cc1 [Compound B-100]
786-O
  IC50: 0.0285 µM
SJSA-1
  IC50: 0.04 µM
A431
  IC50: 7.84 µM
